According to patent US9790221B2, “Heteroaryl compounds as IRAK inhibitors and uses thereof” (Merck Patent GmbH, priority 2014, dated 2017):

How the values were obtained:
[1] = biological target: IRAK1 (His-TEV-IRAK1 (194-712)) (Homo sapiens (Human), UniProt P51617); test: IRAK1 enzymatic assay; format: biochemical
Description: IRAK1 is a human purified recombinant enzyme (His-TEV-IRAK1 (194-712)). In this assay, IRAK-1 hydrolyses ATP and autophosphorylates. Measurement of IRAK-1 inhibition was performed in streptavidin coated 384well FlashPlate (PerkinElmer #SMP410A).
His-TEV-IRAK-1 (15 ng/well), ATP (1 μM, [33P]ATP 0.25 μCi/well) and compounds in DMSO (range of concentrations from 20 µM to 1 nM) or controls (2% DMSO) were incubated for 3 hours at 30° C. in assay buffer: Hepes pH7.0 50 mM, Fatty acid-free BSA 0.1%, Dithiothreitol DTT 2 mM, MgCl2 10 mM, EGTA 0.5 mM, Triton-X-100 0.01%. Kinase reaction was stopped by addition of EDTA. Supernatant was discarded, plates were washed three times with 150 mM NaCl and radioactivity was then measured in a Microbeta Trilux reader.

IRAK4 = IRAK4 (Homo sapiens (Human), UniProt Q9NWZ3); test: IRAK4 enzymatic assay; format: biochemical
Description: IRAK4 is a human purified recombinant enzyme ([…]. IRAK4 hydrolyses ATP, autophosphorylates and phosphorylates a Serine/Threonine generic peptidic substrate (STK: 61ST1BLC from CisBio International based in Bagnols/Cèze FR).
Measurement of IRAK-4 inhibition was performed in streptavidin coated 384well FlashPlate (PerkinElmer #SMP410A). His-TEV-IRAK4 (20 ng/well), ATP (2 μM, [^33P]ATP 0.25 µCi/well), STK1-biotin peptide (300 nM) and compounds in DMSO (range of concentrations from 20 µM to 1 nM) or controls (2% DMSO) were incubated for 3 hours at 30° C. in assay buffer: Hepes pH7.0 50 mM, Fatty acid-free BSA 0.1%, Dithiothreitol DTT 2 mM, MgCl2 10 mM, EGTA 0.5 mM, Tween-20 0.01%, MnCl2 5 mM.
Kinase reaction was stopped by addition of EDTA. Supernatant was discarded, plates were washed three times with 150 mM NaCl and radioactivity was then measured in a Microbeta Trilux reader.

Chain of IRAK4 (Q9NWZ3 whole entry): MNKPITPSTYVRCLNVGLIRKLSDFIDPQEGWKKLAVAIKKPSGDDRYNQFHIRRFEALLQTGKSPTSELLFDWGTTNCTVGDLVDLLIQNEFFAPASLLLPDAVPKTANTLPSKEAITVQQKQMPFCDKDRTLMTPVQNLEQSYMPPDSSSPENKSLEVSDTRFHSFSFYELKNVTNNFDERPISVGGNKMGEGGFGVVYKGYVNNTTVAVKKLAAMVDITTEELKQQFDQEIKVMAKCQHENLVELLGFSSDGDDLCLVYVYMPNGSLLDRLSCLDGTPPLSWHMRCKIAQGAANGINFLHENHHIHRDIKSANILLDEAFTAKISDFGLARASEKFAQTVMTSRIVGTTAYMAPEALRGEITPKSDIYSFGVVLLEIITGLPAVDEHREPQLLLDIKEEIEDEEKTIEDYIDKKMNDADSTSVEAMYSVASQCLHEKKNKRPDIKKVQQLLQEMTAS
Chain of IRAK1 (His-TEV-IRAK1 (194-712)) (P51617 194-712): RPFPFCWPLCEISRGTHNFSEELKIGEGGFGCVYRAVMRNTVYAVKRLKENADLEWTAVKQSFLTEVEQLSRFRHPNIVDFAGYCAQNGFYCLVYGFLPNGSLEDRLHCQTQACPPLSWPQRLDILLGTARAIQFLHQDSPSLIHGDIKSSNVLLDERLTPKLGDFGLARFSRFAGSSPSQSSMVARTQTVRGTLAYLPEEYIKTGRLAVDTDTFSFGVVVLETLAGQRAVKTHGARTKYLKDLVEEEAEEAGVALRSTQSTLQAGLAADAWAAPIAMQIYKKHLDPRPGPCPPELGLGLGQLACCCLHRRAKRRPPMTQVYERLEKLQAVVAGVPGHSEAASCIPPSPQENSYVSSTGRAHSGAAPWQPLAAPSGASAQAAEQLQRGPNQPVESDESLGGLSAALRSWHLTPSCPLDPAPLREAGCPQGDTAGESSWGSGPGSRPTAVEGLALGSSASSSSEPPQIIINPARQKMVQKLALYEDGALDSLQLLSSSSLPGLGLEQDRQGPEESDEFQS

Row | IC50 [1] [nM] | IC50 (IRAK4) [nM] | SMILES
1 | 1000 to 5000 | 1000 to 5000 | CC(=O)NCCNc1nc(-c2cccc(-c3cnn(C)c3)c2)ncc1-c1ccn(C)n1 [Example 73]
2 | 1000 to 5000 | 100 to 1000 | Cn1cc(-c2cccc(-c3ncc(-c4ccn(C)n4)c(NCC4CCNC(=O)C4)n3)c2)cn1 (stereo not drawn) [Example 74]
3 | > 5000 | > 5000 | Cn1cc(-c2cccc(-c3ncc(-c4ccn(C)n4)c(NCCCN4CCOCC4)n3)c2)cn1 [Example 75]
4 | 1000 to 5000 | 100 to 1000 | Cn1cc(-c2cccc(-c3ncc(-c4cnn(C)c4)c(NCCCN4CCOC4=O)n3)c2)cn1 [Example 78]
5 | > 5000 | 100 to 1000 | Cn1cc(-c2cccc(-c3ncc(-c4ccn(C)n4)c(NC4CC(F)C4)n3)c2)cn1 (stereo not drawn) [Example 80]
6 | 1000 to 5000 | 100 to 1000 | Cn1cc(-c2cccc(-c3ncc(-c4ccn(C)n4)c(NC4CC(O)C4)n3)c2)cn1 (stereo not drawn) [Example 82]
7 | > 5000 | 100 to 1000 | Cn1cc(-c2cccc(-c3ncc(-c4cnn(C)c4)c(NCCCCN)n3)c2)cn1 [Example 88]
8 | > 5000 | 1000 to 5000 | Cn1cc(-c2cccc(-c3ncc(-c4cnn(C)c4)c(NCCCN)n3)c2)cn1 [Example 89]
9 | > 5000 | > 5000 | Cn1cc(-c2cccc(-c3ncc(-c4ccn(C)n4)c(NC4CC(F)(F)C4)n3)c2)cn1 [Example 90]
10 | > 5000 | > 5000 | Cn1cc(-c2cccc(-c3ncc(-c4ccn(C)n4)c(NCCN4CCOC4=O)n3)c2)cn1 [Example 91]
11 | > 5000 | > 5000 | Cn1cc(-c2cccc(-c3ncc(-c4cnn(C)c4)c(NC4(CO)COC4)n3)c2)cn1 [Example 92]
12 | 1000 to 5000 | < 100 | Cn1cc(-c2cccc(-c3ncc(-c4cnn(C)c4)c(NCCO)n3)c2)cn1 [Example 96]
13 | 1000 to 5000 | 100 to 1000 | Cn1cc(-c2cccc(-c3ncc(-c4ccn(C)n4)c(NC4CC5(CC(N)C5)C4)n3)c2)cn1 (stereo not drawn) [Example 98]
14 | 1000 to 5000 | 100 to 1000 | Cn1cc(-c2cccc(-c3ncc(-c4ccn(C)n4)c(NCCO)n3)c2)cn1 [Example 100]
15 | 1000 to 5000 | 100 to 1000 | Cn1cc(-c2cccc(-c3ncc(-c4ccn(C)n4)c(NC4CCC(=O)NC4)n3)c2)cn1 (stereo not drawn) [Example 102]
16 | 1000 to 5000 | < 100 | Cn1cc(-c2cccc(-c3ncc(-c4cnn(C)c4)c(NC4CCC(=O)NC4)n3)c2)cn1 (stereo not drawn) [Example 103]
17 | 1000 to 5000 | 100 to 1000 | Cn1cc(-c2cccc(-c3ncc(-c4ccn(C)n4)c(NC[C@H]4CCNC4)n3)c2)cn1 [Example 104]
18 | > 5000 | 100 to 1000 | CN1CCOC(CNc2nc(-c3cccc(-c4cnn(C)c4)c3)ncc2-c2cnn(C)c2)C1 (stereo not drawn) [Example 105]
19 | > 5000 | < 100 | Cn1cc(-c2cccc(-c3ncc(-c4nnc(C(=O)N5CC[C@@H](O)C5)s4)c(NCC4CNC4)n3)c2)cn1 [Example 106]
20 | > 5000 | 100 to 1000 | CC(=O)NCCCNc1nc(-c2cccc(-c3cnn(C)c3)c2)ncc1-c1cnn(C)c1 [Example 109]
21 | > 5000 | 1000 to 5000 | Cn1cc(-c2cccc(-c3ncc(-c4cnn(C)c4)c(NCCN4CCC(O)CC4)n3)c2)cn1 [Example 110]
22 | 100 to 1000 | < 100 | Cn1cc(-c2cccc(-c3ncc(-c4ccn(C)n4)c(N[C@H]4CC[C@@H](N)CC4)n3)c2)cn1 [Example 111]
23 | 1000 to 5000 | 100 to 1000 | Cn1cc(-c2cccc(-c3ncc(-c4ccn(C)n4)c(NCC4(O)CCNCC4(C)C)n3)c2)cn1 (stereo not drawn) [Example 114]
24 | > 5000 | 100 to 1000 | Cn1cc(-c2cccc(-c3ncc(-c4ccn(C)n4)c(N[C@H]4CCNC4)n3)c2)cn1 [Example 117]
25 | 100 to 1000 | 100 to 1000 | Cn1cc(-c2cccc(-c3ncc(-c4ccn(C)n4)c(NC[C@H](O)CO)n3)c2)cn1 [Example 120]
26 | > 5000 | 100 to 1000 | Cn1cc(-c2cccc(-c3ncc(-c4cnn(C)c4)c(N[C@H]4CCNC4)n3)c2)cn1 [Example 121]
27 | > 5000 | 100 to 1000 | Cn1cc(-c2cccc(-c3ncc(-c4ccn(C)n4)c(NCC4CCCC(O)C4)n3)c2)cn1 (stereo not drawn) [Example 122]

Row | IC50 [1] [nM] | IC50 (IRAK4) [nM] | SMILES
28 | > 5000 | 100 to 1000 | Cn1cc(-c2cccc(-c3ncc(-c4ccn(C)n4)c(N[C@H]4C[C@@H](N)C4)n3)c2)cn1 [Example 124]
29 | 1000 to 5000 | 100 to 1000 | Cn1cc(-c2cccc(-c3ncc(-c4cnn(C)c4)c(N[C@@H]4CNC[C@@H](F)C4)n3)c2)cn1 [Example 130]
30 | 100 to 1000 | 100 to 1000 | Cn1cc(-c2cccc(-c3ncc(-c4cnn(C)c4)c(NCCCC(C)(C)O)n3)c2)cn1 [Example 139]
31 | 1000 to 5000 | 100 to 1000 | Cn1cc(-c2cccc(-c3ncc(-c4ccn(C)n4)c(NCCCC(C)(C)O)n3)c2)cn1 [Example 140]
32 | > 5000 | 1000 to 5000 | CN(CC1CC(F)(F)C1)c1nc(-c2cccc(-c3cnn(C)c3)c2)ncc1-c1ccn(C)n1 [Example 142]
33 | > 5000 | 100 to 1000 | Cn1cc(-c2cccc(-c3ncc(-c4ccn(C)n4)c(NCC4CCNC4)n3)c2)cn1 (stereo not drawn) [Example 144]
34 | > 5000 | 100 to 1000 | Cn1cc(-c2cccc(-c3ncc(-c4cnn(C)c4)c(NCC4CCNC4)n3)c2)cn1 (stereo not drawn) [Example 145]
35 | > 5000 | < 100 | Cn1cc(-c2cccc(-c3ncc(-c4ccn(C)n4)c(N[C@H]4CC[C@H](O)CC4)n3)c2)cn1 [Example 147]
36 | > 5000 | 100 to 1000 | Cn1cc(-c2cccc(-c3ncc(-c4cnn(C)c4)c(N4CCNCC4)n3)c2)cn1 [Example 148]
37 | > 5000 | 100 to 1000 | Cn1cc(-c2cccc(-c3ncc(-c4cnn(C)c4)c(NC4CCC5CNCC54)n3)c2)cn1 (stereo not drawn) [Example 150]
38 | > 5000 | 100 to 1000 | Cn1cc(-c2cccc(-c3ncc(-c4ccn(C)n4)c(NC4CCC5CNCC54)n3)c2)cn1 (stereo not drawn) [Example 154]
39 | > 5000 | < 100 | Cn1cc(-c2cccc(-c3ncc(-c4cnn(C)c4)c(NC[C@H]4CC[C@@H](O)CC4)n3)c2)cn1 [Example 155]
40 | 100 to 1000 | < 100 | Cn1cc(-c2cccc(-c3ncc(-c4cnn(C)c4)c(NCC4CC4)n3)c2)cn1 [Example 157]
41 | 100 to 1000 | < 100 | Cn1cc(-c2cccc(-c3ncc(-c4cnn(C)c4)c(NCC4CCN(S(C)(=O)=O)C4)n3)c2)cn1 (stereo not drawn) [Example 158]
42 | > 5000 | < 100 | Cn1cc(-c2cccc(-c3ncc(-c4cnn(C)c4)c(NC4C5CCCC4CC(NS(C)(=O)=O)C5)n3)c2)cn1 (stereo not drawn) [Example 159]
43 | 100 to 1000 | < 100 | Cn1cc(-c2cccc(-c3ncc(-c4cnn(C)c4)c(NC4CC5(C4)CC(NS(C)(=O)=O)C5)n3)c2)cn1 (stereo not drawn) [Example 160]
44 | 100 to 1000 | < 100 | Cn1cc(-c2cccc(-c3ncc(-c4cnn(C)c4)c(NCC4CCC4)n3)c2)cn1 [Example 163]
45 | > 5000 | < 100 | Cn1cc(-c2cccc(-c3ncc(-c4cnn(C)c4)c(NC4CCC5CN(S(C)(=O)=O)CC54)n3)c2)cn1 (stereo not drawn) [Example 168]
46 | 100 to 1000 | < 100 | Cn1cc(-c2cccc(-c3ncc(-c4cnn(C)c4)c(NCC4CN(S(C)(=O)=O)CCO4)n3)c2)cn1 (stereo not drawn) [Example 172]
47 | > 5000 | 100 to 1000 | Cn1cc(-c2cccc(-c3ncc(-c4cnn(C)c4)c(NCC4[C@H]5CN(S(C)(=O)=O)C[C@@H]45)n3)c2)cn1 (stereo partly drawn) [Example 173]
48 | 100 to 1000 | < 100 | Cn1cc(-c2cccc(-c3ncc(-c4cnn(C)c4)c(NC[C@H]4CCN(S(C)(=O)=O)C4)n3)c2)cn1 [Example 174]
49 | 100 to 1000 | 100 to 1000 | Cn1cc(-c2cccc(-c3ncc(-c4cnn(C)c4)c(NCCC4CCN(S(C)(=O)=O)C4)n3)c2)cn1 (stereo not drawn) [Example 175]
50 | 100 to 1000 | < 100 | Cn1cc(-c2cccc(-c3ncc(-c4cnn(C)c4)c(NCCCCNS(C)(=O)=O)n3)c2)cn1 [Example 177]
51 | 100 to 1000 | 100 to 1000 | Cn1cc(-c2cccc(-c3ncc(-c4cnn(C)c4)c(NC4CCCCN(S(C)(=O)=O)C4)n3)c2)cn1 (stereo not drawn) [Example 178]
52 | 100 to 1000 | < 100 | Cn1cc(-c2cccc(-c3ncc(-c4cnn(C)c4)c(NC4CC(CO)(CO)C4)n3)c2)cn1 [Example 180]
53 | > 5000 | > 5000 | Cn1cc(-c2cccc(-c3ncc(-c4cnn(C)c4)c(NC4CC5CC4N(S(C)(=O)=O)C5)n3)c2)cn1 (stereo not drawn) [Example 189]

Row | SMILES | IC50 [1] [nM] | IC50 (IRAK4) [nM]
54 | Cn1cc(-c2cccc(-c3ncc(-c4ccn(C)n4)c(N[C@H]4C[C@@H](S(C)(=O)=O)C4)n3)c2)cn1 [Example 79] | 100 to 1000 | 100 to 1000
